According to publication PMC6055880, “Virtual Fragment Screening Identification of a Quinoline‐5,8‐dicarboxylic Acid Derivative as a Selective JMJD3 Inhibitor” (Chemmedchem, 2018):
Values belong to the molecule of their own block, whether it stands above or below them.

What was measured:
Format in all cases: biochemical
JMJD3 = JMJD3 (Homo sapiens, UniProt O15054); assay: AlphaScreen JMJD3 demethylase inhibition; settings: for inhibition at 25 µM: compound at 25 μM
Excerpt: (§1) Compounds 4 and 5 also appreciably decrease enzyme activity by 65 % and 60 %, respectively. […] We proceeded to investigate the inhibitory activity of 3 further by evaluation of its IC50 value against JMJD3. The results highlighted a low micromolar activity of compound 3 against JMJD3 (Table 1). […] Similar outcomes were obtained for 3 versus JMJD2C and JMJD2D (Table 1). […] Relative to JMJD1A and FBXL11, we found a decrease in enzymatic activity (Table 1) toward Jarid1A and Jarid1B of 33 % and 26 % by 3.
(§2) 2,4-pyridine dicarboxylic acid (2,4-PC) is purchased from Acros Organics (New Jersey, […]
GSK J1 is purchased from Sigma Aldrich (Italy, Catalog number SML0709).
JIB-04 is purchased from Sigma-Aldrich (St. Louis, MO, Catalog number SML0808).
AlphaLISA anti-mIgG acceptor beads from PerkinElmer (Santa Clara, CA, Catalog number […]
AlphaLISA anti-rIgG acceptor beads from PerkinElmer (Santa Clara, CA, Catalog number […]
AlphaScreen Streptavidin-conjaugated donor beads from PerkinElmer (Santa Clara, CA, […]
Primary antibody 2 from BPS (Catalog number 52140B1).
Primary antibody 5 from BPS (Catalog number 52140E).
Primary antibody 6 from BPS (Catalog number 52140F).
Primary antibody 16-2 from BPS (Catalog number 52140P2).
Primary antibody 17-3 from BPS(Catalog number 52140Q3). […]
Biotinylated histone H3 peptide substrate (UTX and JMJD3) (BPS and Anaspec). […]
JMJD3 Assay Buffer from BPS. […]
4x Detection buffer from BPS (Catalog number 52301).
All of the enzymatic reactions were conducted at room temperature for 60 minutes in a 10 µl mixture containing assay buffer, histone H3 peptide substrate, demethylase enzyme, and the test compound. These 10 µl reactions were carried out in wells of 384-well Optiplate (PerkinElmer). The serial dilution of the compounds was first performed in 100% DMSO with the highest concentration at 1 mM. Each intermediate compound dilution (in 100% DMSO) will then get directly diluted 30x fold into assay buffer for 3.3x conc (DMSO). Enzyme only and blank only wells have a final DMSO concentration of 1%. From this intermediate step, 3 µl of compound is added to 4 µl of demethylase enzyme dilution is incubated for 30 minutes at room temperature. After this incubation, 3 µl of peptide substrate is added. The final DMSO concentration is 1%.
(§3) After enzymatic reactions, 5 µl of anti-Mouse Acceptor beads (PerkinElmer, diluted 1:500 with 1x detection buffer) or 5 µl of anti-Rabbit Acceptor beads (PerkinElmer, diluted 1:500 with 1x detection buffer) and 5 µl of Primary antibody (BPS, diluted 1:200 with 1x detection buffer) were added to the reaction mix. After brief shaking, plate was incubated for 30 minutes. Finally, 10 µl of AlphaScreen Streptavidin-conjugated donor beads (Perkin, diluted 1:125 with 1x detection buffer) were added. In 30 minutes, the samples were measured in AlphaScreen microplate reader (EnSpire Alpha 2390 Multilabel Reader, PerkinElmer).
For JMJD3, Donor and acceptor beads and primary antibody were incubated for 1 h,[9] for the remaining enzymes for 30’.
5 µL of AlphaScreen assay buffer containing EDTA (30 mM) and NaCl (800 mM) to stop the […]
Except for JMJD3, the experiments were performed by BPS Bioscience.
Enzyme activity assays were performed in duplicates at each concentration. The A-screen intensity data were analyzed and compared. In the absence of the compound, the intensity in each data set was defined as 100% activity. In the absence of enzyme, the intensity in each data set was defined as 0% activity. The values of % activity versus a series of compound concentrations were then plotted using non-linear regression analysis of Sigmoidal dose-response curve generated with the equation Y=B+(T-B)/1+10((LogEC50-X)×Hill Slope), where Y=percent activity, B=minimum percent activity, T=maximum percent activity, X= l ogarithm of compound and Hill Slope=slope factor or Hill coefficient. The IC 50 value was determined by the concentration causing a half -maximal percent activity.

Jarid1A = target: T1, Jarid1A (Homo sapiens, UniProt P29375); assay: AlphaScreen Jarid1A demethylase inhibition (selectivity)
T1 construct: purchased BPS Bioscience (contract assay)
T1 sequence (P29375 whole entry): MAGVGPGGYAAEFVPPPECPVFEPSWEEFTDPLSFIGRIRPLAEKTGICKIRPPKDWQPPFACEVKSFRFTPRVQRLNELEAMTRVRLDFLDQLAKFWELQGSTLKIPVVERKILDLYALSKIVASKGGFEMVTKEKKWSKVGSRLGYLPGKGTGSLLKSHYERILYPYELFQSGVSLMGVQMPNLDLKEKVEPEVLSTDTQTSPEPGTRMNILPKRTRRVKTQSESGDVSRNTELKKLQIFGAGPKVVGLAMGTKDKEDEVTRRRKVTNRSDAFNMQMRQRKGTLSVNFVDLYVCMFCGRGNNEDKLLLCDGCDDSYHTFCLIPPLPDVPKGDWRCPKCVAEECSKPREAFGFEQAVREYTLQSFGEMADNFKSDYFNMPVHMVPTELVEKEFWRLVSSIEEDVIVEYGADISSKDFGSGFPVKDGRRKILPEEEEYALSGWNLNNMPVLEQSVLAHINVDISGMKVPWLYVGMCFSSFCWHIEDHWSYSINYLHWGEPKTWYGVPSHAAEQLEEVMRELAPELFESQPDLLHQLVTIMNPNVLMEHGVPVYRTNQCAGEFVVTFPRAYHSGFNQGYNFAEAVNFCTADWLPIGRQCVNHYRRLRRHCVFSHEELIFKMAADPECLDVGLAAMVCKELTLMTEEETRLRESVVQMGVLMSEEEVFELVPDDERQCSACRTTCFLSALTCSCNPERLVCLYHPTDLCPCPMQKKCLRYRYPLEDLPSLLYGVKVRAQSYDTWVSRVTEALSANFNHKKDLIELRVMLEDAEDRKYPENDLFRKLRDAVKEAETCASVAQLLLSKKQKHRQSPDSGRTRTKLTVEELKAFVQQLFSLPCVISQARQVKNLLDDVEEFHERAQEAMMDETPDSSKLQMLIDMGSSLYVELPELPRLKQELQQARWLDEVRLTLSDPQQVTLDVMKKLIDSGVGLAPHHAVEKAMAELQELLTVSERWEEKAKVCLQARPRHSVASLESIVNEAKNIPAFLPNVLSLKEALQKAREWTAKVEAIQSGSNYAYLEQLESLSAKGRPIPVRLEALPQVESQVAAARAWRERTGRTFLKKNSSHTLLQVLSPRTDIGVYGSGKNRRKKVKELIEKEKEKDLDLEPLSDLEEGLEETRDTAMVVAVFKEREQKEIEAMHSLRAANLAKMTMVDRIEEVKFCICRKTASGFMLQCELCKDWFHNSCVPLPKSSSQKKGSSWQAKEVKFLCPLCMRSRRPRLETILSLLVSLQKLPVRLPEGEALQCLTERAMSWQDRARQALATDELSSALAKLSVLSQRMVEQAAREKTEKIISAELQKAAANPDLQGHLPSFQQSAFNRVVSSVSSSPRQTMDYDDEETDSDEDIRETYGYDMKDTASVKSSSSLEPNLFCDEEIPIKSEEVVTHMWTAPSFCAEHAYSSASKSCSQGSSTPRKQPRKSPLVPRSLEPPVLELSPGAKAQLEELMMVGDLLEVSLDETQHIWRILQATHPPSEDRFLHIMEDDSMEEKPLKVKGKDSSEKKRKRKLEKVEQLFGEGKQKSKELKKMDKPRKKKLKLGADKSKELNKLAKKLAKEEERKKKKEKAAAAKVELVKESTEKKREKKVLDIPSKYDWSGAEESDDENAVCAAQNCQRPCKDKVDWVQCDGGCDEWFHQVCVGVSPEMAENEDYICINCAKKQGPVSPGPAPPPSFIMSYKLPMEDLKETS
Excerpt: as §1, §2
(§4) GSK J1 is purchased from Sigma Aldrich (Italy, Catalog number SML0709). […]
as §3, with “After brief shaking, plate was incubated for 30 minutes. Finally, 10 µl of AlphaScreen Streptavidin-conjugated donor beads (Perkin, diluted 1:125 with 1x detection buffer) were added.” left out, “PerkinElmer). […]” for “PerkinElmer).”
(§5) Enzyme activity assays were performed in duplicates at each concentration. The A-screen intensity data were analyzed and compared. […] The IC 50 value was determined by the concentration causing a half -maximal percent activity.

Jarid1B = target: T2, Jarid1B (Homo sapiens, UniProt Q9UGL1); assay: AlphaScreen Jarid1B demethylase inhibition (selectivity)
T2 construct: purchased BPS Bioscience (contract assay)
T2 sequence (Q9UGL1 whole entry): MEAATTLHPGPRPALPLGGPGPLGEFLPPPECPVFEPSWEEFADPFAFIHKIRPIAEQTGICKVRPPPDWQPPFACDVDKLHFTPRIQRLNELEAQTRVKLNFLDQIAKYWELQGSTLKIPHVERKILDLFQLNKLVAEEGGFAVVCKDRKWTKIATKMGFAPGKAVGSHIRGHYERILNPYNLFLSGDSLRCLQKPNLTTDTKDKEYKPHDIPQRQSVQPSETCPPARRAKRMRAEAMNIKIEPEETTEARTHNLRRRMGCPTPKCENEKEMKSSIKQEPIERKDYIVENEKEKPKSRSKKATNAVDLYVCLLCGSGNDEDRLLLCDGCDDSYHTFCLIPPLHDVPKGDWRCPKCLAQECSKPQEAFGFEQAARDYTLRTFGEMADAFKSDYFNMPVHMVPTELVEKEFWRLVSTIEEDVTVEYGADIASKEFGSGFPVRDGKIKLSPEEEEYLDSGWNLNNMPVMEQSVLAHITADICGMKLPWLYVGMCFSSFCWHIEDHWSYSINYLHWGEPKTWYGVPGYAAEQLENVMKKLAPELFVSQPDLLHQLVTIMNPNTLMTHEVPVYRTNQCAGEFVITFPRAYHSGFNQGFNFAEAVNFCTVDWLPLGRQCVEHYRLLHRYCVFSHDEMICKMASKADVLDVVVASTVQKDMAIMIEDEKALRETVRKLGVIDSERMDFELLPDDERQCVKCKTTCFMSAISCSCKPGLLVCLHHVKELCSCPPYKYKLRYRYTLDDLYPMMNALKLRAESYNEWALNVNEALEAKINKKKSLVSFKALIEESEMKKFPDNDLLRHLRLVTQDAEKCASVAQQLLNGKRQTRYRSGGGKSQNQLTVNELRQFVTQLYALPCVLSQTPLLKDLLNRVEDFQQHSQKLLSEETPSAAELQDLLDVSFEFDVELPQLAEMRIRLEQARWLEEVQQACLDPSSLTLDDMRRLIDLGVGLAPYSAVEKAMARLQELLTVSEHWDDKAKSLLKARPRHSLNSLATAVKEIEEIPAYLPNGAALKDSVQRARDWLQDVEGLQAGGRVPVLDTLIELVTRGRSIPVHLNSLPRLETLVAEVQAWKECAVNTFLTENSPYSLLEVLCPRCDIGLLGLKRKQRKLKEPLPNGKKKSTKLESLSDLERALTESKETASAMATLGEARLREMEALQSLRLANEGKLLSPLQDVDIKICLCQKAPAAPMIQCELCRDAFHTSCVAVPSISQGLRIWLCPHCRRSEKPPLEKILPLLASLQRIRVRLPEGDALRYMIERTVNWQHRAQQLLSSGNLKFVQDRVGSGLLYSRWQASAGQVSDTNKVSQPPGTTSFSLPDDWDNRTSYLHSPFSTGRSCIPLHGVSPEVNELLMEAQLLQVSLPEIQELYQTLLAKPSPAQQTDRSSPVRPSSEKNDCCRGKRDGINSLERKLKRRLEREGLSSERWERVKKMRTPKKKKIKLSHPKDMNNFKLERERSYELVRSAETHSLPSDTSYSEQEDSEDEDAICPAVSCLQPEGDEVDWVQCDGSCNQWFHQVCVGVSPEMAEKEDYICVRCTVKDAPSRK
Excerpt: as §1, §2, §4
as §3, with “After brief shaking, plate was incubated for 30 minutes. Finally, 10 µl of AlphaScreen Streptavidin-conjugated donor beads (Perkin, diluted 1:125 with 1x detection buffer) were added.” left out, “PerkinElmer). […]” for “PerkinElmer).”
as §5

UTX = target: T3, UTX (Homo sapiens, UniProt O15550); assay: AlphaScreen UTX demethylase inhibition (selectivity); settings: at 10 μM; NI = no significant inhibition at 10 μM
T3 construct: purchased BPS Bioscience (contract assay)
Excerpt: as §1, §2, §4
as §3, with “After brief shaking, plate was incubated for 30 minutes. Finally, 10 µl of AlphaScreen Streptavidin-conjugated donor beads (Perkin, diluted 1:125 with 1x detection buffer) were added.” left out, “PerkinElmer). […]” for “PerkinElmer).”
as §5

JMJD1A = target: T4, JMJD1A (Homo sapiens, UniProt Q9Y4C1); assay: AlphaScreen JMJD1A demethylase inhibition (selectivity)
T4 construct: purchased BPS Bioscience (contract assay)
T4 sequence (Q9Y4C1 1-1321): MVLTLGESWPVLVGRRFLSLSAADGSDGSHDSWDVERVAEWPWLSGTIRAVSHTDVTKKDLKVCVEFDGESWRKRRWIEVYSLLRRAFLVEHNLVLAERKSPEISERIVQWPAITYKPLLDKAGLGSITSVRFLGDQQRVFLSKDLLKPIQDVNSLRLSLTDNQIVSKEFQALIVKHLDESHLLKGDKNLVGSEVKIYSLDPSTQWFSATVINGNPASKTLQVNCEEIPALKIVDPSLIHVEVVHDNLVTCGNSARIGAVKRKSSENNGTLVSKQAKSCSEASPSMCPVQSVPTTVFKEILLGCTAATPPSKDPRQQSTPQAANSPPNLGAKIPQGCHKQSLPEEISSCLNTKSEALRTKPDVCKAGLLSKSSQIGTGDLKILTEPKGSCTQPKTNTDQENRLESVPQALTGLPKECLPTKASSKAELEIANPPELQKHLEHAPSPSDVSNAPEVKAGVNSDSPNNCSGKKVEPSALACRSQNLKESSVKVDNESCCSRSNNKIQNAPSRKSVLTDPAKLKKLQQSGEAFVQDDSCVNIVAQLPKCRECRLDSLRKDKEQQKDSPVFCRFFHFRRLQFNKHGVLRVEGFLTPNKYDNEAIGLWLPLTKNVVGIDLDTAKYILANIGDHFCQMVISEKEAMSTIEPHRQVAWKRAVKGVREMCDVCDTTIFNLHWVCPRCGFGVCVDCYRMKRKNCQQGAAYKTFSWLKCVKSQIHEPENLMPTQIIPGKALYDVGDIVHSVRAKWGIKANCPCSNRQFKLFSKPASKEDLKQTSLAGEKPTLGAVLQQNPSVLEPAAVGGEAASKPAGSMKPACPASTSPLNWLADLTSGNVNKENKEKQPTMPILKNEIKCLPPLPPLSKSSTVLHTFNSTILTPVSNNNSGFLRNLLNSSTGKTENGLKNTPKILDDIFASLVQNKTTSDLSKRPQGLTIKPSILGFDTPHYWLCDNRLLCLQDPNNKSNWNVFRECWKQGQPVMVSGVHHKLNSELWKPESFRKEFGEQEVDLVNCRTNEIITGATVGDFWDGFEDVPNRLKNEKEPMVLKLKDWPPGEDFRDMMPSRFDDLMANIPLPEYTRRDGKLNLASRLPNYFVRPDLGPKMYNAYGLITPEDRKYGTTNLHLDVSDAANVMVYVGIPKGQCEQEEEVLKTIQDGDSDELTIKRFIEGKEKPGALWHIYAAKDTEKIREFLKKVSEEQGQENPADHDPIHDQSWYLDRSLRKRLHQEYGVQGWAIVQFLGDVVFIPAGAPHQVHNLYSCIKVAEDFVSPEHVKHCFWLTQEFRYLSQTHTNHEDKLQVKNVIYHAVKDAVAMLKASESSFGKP
Excerpt: as §1, §2, §4
as §3, with “After brief shaking, plate was incubated for 30 minutes. Finally, 10 µl of AlphaScreen Streptavidin-conjugated donor beads (Perkin, diluted 1:125 with 1x detection buffer) were added.” left out, “PerkinElmer). […]” for “PerkinElmer).”
as §5

FBXL11 = target: T5, FBXL11 (Homo sapiens, UniProt Q9Y2K7); assay: AlphaScreen FBXL11 demethylase inhibition (selectivity)
T5 construct: purchased BPS Bioscience (contract assay)
T5 sequence (Q9Y2K7 1-1162): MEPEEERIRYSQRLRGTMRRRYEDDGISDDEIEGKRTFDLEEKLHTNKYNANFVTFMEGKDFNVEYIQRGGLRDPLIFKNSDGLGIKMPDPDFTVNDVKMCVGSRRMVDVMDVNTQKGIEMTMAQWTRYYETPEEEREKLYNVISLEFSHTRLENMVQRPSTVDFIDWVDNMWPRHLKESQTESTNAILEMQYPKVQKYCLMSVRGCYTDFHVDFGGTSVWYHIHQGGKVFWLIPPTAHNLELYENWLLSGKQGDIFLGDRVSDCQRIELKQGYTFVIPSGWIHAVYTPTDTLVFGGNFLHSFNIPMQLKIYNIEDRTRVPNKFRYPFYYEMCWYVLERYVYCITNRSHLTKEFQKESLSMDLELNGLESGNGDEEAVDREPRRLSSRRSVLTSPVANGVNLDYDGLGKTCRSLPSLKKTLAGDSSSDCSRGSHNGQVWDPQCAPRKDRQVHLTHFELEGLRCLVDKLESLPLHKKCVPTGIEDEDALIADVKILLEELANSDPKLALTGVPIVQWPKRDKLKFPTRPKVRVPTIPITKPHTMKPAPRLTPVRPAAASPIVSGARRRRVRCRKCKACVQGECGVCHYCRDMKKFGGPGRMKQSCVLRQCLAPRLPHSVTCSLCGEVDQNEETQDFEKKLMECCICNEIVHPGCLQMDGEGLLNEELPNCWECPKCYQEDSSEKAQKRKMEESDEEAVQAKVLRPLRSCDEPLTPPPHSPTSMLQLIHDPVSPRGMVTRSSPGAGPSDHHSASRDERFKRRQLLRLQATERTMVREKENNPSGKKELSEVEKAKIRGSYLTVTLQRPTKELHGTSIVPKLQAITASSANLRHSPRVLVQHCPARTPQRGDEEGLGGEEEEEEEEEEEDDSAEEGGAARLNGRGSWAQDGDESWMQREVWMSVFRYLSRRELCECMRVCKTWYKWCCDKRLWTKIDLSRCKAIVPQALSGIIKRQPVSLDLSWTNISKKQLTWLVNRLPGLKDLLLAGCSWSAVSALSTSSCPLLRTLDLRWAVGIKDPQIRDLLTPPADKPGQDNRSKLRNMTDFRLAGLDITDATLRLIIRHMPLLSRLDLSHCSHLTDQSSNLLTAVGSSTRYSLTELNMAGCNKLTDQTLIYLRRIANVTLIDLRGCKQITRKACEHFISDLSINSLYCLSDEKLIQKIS
Excerpt: as §1, §2, §4
as §3, with “After brief shaking, plate was incubated for 30 minutes. Finally, 10 µl of AlphaScreen Streptavidin-conjugated donor beads (Perkin, diluted 1:125 with 1x detection buffer) were added.” left out, “PerkinElmer). […]” for “PerkinElmer).”
as §5

Sequence of JMJD3 (O15054 whole entry): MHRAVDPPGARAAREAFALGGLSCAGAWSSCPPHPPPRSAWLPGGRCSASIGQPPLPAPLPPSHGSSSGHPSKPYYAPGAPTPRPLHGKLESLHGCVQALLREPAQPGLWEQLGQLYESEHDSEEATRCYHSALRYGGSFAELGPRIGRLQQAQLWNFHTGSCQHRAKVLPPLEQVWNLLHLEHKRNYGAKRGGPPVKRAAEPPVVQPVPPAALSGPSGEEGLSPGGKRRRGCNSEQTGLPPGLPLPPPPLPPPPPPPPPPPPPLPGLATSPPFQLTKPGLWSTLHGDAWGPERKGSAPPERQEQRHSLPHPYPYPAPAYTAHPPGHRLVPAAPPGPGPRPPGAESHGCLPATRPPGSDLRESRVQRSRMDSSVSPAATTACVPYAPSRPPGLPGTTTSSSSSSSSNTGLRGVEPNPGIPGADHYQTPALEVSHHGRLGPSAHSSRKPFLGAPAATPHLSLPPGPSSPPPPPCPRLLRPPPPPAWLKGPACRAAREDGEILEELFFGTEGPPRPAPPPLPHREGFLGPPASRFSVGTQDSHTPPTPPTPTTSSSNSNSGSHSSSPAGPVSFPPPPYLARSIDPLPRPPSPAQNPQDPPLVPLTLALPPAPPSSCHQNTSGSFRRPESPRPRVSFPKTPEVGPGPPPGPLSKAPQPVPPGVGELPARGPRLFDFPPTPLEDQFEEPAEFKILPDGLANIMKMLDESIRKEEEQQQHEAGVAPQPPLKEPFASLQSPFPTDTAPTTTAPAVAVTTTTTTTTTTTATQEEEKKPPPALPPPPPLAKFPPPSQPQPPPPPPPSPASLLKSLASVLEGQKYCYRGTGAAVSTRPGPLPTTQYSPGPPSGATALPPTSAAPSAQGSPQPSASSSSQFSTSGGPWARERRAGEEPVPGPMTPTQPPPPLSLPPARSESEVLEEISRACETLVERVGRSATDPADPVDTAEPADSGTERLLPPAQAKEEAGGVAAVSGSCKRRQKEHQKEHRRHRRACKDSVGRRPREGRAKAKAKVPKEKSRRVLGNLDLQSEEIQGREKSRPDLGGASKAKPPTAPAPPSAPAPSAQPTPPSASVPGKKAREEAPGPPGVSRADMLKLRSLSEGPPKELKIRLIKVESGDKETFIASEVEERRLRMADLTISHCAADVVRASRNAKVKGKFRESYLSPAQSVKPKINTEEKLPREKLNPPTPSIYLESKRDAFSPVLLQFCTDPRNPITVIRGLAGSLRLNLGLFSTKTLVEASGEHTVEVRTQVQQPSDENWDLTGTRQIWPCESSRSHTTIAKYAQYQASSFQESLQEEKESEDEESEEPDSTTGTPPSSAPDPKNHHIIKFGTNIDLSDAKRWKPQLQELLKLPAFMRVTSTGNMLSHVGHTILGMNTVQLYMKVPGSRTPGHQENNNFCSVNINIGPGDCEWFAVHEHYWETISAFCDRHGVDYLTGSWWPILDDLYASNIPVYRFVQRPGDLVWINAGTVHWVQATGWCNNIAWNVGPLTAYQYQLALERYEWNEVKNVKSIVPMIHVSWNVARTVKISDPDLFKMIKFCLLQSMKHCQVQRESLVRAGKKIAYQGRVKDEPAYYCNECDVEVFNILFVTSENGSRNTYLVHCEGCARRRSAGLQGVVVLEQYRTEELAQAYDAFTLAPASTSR

inhibition at 25 µM (JMJD3): 65%
Compound: NS(=O)(=O)c1ccc(-c2cnc3c(C(=O)O)ccc(C(=O)O)c3c2)cc1 [Compound 4]

inhibition at 25 µM (JMJD3): ~12%
Compound: COc1cc(-c2cnc3c(C(=O)O)ccc(C(=O)O)c3c2)ccc1F [Compound 7]

inhibition at 10 µM (Jarid1A; at 10 μM, read-out: Percent Inhibition Jarid1A): 33%
IC50 (Jarid1A; footnote b of Table 1): > 10 µM
inhibition at 10 µM (Jarid1B; at 10 μM, read-out: Percent Inhibition Jarid1B): 26%
IC50 (Jarid1B; footnote b of Table 1): > 10 µM
inhibition at 25 µM (JMJD3): 90%
IC50 (JMJD3; read-out: IC50±SEM JMJD3): 1.52 ± 0.5 µM
Percent Inhibition UTX (UTX): no significant inhibition
inhibition at 10 µM (JMJD1A; at 10 μM, read-out: Percent Inhibition JMJD1A): 12%
IC50 (JMJD1A; footnote b of Table 1): > 10 µM
inhibition at 10 µM (FBXL11; at 10 μM, read-out: Percent Inhibition FBXL11): 15%
IC50 (FBXL11; footnote b of Table 1): > 10 µM
Compound: COc1ncc(-c2cnc3c(C(=O)O)ccc(C(=O)O)c3c2)c(OC)n1 [Compound 3, 3‐(2,4‐dimethoxypyrimidin‐5‐yl)quinoline‐5,8‐dicarboxylic acid]

inhibition at 25 µM (JMJD3): 60%
Compound: O=C(O)c1ccc(-c2cnc3c(C(=O)O)ccc(C(=O)O)c3c2)s1 [Compound 5]

inhibition at 25 µM (JMJD3): ~25%
Compound: COc1cc(-c2cnc3c(C(=O)O)ccc(C(=O)O)c3c2)c(OC)nn1 [Compound 6]
